Source: patent US10669312B2, “Peptide for suppressing osteoclast differentiation and use thereof” (CAREGEN CO., LTD., priority 2013, dated 2020)
Entries after “also recorded” stand apart in the source; their conditions may differ. Ends that are not written are not given here.

Legend:
Type in all cases: cell-based
TRAP = TRAP activity in differentiated Raw264.7 cells, absorbance 405 nm; details: 10 ng/ml RANKL, 50 ng/ml TNF-α, 1 or 10 μg/ml peptide, five days
Protocol: Raw264.7 cells were treated in combination with 10 ng/ml RANKL, 50 ng/ml TNF-α, or the 1 or 10 μg/ml peptide synthesized in synthetic example 1 to induce differentiation for five days, and then the inhibition degree of the activity of TRAP, an osteoclast differentiation marker, was tested. After culture, the culture liquid was removed, and then 100 μl of a lysis buffer (20 mM tris buffer, 3% triton X-100) was added to disrupt cell walls. A reaction solution is prepared from 500 μl of a citrate solution (18 mM citric acid, 9 mM sodium chloride, 12 mM surfactant; pH 3.5), 50 μl of a tartrate solution, and 500 μl of a 20 mM phosphate substrate. 100 μl of the lysate and 100 μl of the reaction solution were added in the same amount, and then the reaction was conducted at 37° C. for 30 minutes. For colorimetric analysis, the absorbance was determined at 405 nm using a spectrophotometer. It was validated that, in cases where the treatment with the peptide of SEQ ID NO: 1 or SEQ ID NO: 2 together with RANKL and TNF-α, the peptides inhibited the activity of TRAP, which is an osteoclast differentiation marker, in a concentration-dependent manner (FIGS. 4a and 4b).

osteopontin (OPN) = test: Osteoblast differentiation marker mRNA expression (PCR), OPN; details: MC3T3-E1 cells, 10 or 50 μg/ml peptide, two days
Protocol: (§1) MC3T3-E1 cells were treated with 10 or 50 μg/ml of the peptides synthesized in synthetic example 1 to induce the differentiation for two days, and tests for verifying the mRNA expression of osteoblast differentiation markers, such as osteocalcin (OCN), osteoprotegerin (OPG), bone sialoprotein (BSP), and osteopontin (OPN), were conducted. Target-specific primer sequences used in PCR were as follows: OCN forward primer sequence, [NT] (SEQ ID NO:15) and OCN reverse primer sequence, [NT] (SEQ ID NO:16) (annealing temperature, 60° C.); OPG forward primer sequence, [NT] (SEQ ID NO:17) and OPG reverse primer sequence, [NT] (SEQ ID NO:18) (annealing temperature, 60° C.); BSP forward primer sequence, [NT] (SEQ ID NO:19) and BSP reverse primer sequence, [NT] (SEQ ID NO:20) (annealing temperature, 60° C.); OPN forward primer sequence, [NT] ID NO:21) and OPN reverse primer sequence, [NT] ID NO:22) (annealing temperature, 50° C.). […] Therefore, the peptides of the present invention can promote osteoblast differentiation by increasing the genetic expressions of OCN, OPG, BSP, and OPN, which are osteoblast differentiation markers.

Raw264.7 cells = test: Osteoclast differentiation inhibition, TRAP staining; details: 10 ng/ml RANKL, 50 ng/ml TNF-α, 1 or 10 μg/ml peptide, five days
Protocol: In order to analyze the IL-3-like action and the inhibitory action of the peptides of SEQ ID NO: 1 and SEQ ID NO: 2, synthesized in synthetic example 1, TRAP staining was conducted using Raw264.7 strain differentiable into osteoclasts while referring to methods, such as tartrate-resistant acid phosphatase staining (Rizzino, et al. Cancer Res. 48:4266(1988)).
Raw264.7 cell lines (ATCC) were cultured in Dulbecco's modified Eagle's medium (DMEM, Gibco, U.S.A.) supplemented with 10% fetal bovine serum (FBS, Sigma) using each 250 ml-flask for tissue culture. The cultured cell lines were carefully detached from the bottom of the culture container using a pipette, followed by centrifugation, to obtain only cell precipitates. The cell precipitates were re-suspended in DMEM culture medium supplemented with 10% FBS, and then added to a […] for tissue culture plate at 1×10^4 cells per each well. For the induction of differentiation, the blank sample and RAW264.7 cells were treated with 10 ng/ml RANKL, 50 ng/ml TNF-α, and 1 μg/ml or 10 μg/ml synthesized peptides dissolved in 10% distilled water in a sterile state, […] After 72 hours, the medium was changed with the same culture liquid, and then the blank sample and the cells were treated with 10 ng/ml RANKL, 50 ng/ml TNF-α, and 1 μg/ml or 10 μg/ml synthesized peptides, and then cultured under the same conditions for 48 hours. […]

osteocalcin (OCN) = test: Osteoblast differentiation marker mRNA expression (PCR), OCN; details: MC3T3-E1 cells, 10 or 50 μg/ml peptide, two days
Protocol: as §1

bone sialoprotein (BSP) = test: Osteoblast differentiation marker mRNA expression (PCR), BSP; details: MC3T3-E1 cells, 10 or 50 μg/ml peptide, two days
Protocol: as §1

osteoprotegerin (OPG) = test: Osteoblast differentiation marker mRNA expression (PCR), OPG; details: MC3T3-E1 cells, 10 or 50 μg/ml peptide, two days
Protocol: as §1

pSmad1/5/8 = test: Osteogenic differentiation signal, Smad1/5/8 phosphorylation, western blotting; details: MC3T3-E1 cells, serum-starved 24 hours, 10 μg/ml peptide, 30 minutes
Protocol: In order to verify whether pSmad1/5/8, which is a signal involved in osteogenic differentiation, was activated by the present peptides, MC3T3-E1 cells were dispensed into 6-well plates at 2×10^5 cells, and then cultured for 24 hours under the conditions of 37° C. and 5% CO2. After 24 hours, the medium was changed with a serum-free medium, and then the cells were starved for 24 hours, treated with the 10 μg/ml peptides or 50 ng/ml BMP2, used as a positive control, for 30 minutes, washed with PBS, and dissolved in a lysis buffer, thereby obtaining proteins, which were then subjected to western blotting.

| Sequence | activity of TRAP, osteoclast differentiation marker (TRAP) | mRNA level of osteopontin (OPN) (osteopontin (OPN)) | RANKL- and TNF-α-induced differentiation of Raw264.7 into osteoclasts (Raw264.7 cells) | mRNA level of osteocalcin (OCN) (osteocalcin (OCN)) | mRNA level of bone sialoprotein (BSP) (bone sialoprotein (BSP)) | mRNA level of osteoprotegerin (OPG) (osteoprotegerin (OPG)) | phosphorylation of Smad1/5/8 (pSmad1/5/8) |
| --- | --- | --- | --- | --- | --- | --- | --- |
| NCSNMICEIITH (cysteine pairing not given here) [SEQ ID NO: 1, IL-3-derived synthetic peptide, 12 amino acids] | inhibited | increased | inhibit | increased | increased | increased | led to the phosphorylation of Smad1/5/8; also recorded: increased |
| RRKLTFYLKTLE [SEQ ID NO: 2, IL-3-derived synthetic peptide, 12 amino acids] | inhibited | increased | inhibit | increased | increased | increased | led to the phosphorylation of Smad1/5/8; also recorded: increased |
